From patent US20110076693A1, “METHOD FOR DETECTION AND QUANTIFICATION OF PLK1 EXPRESSION AND ACTIVITY” (The U.S.A. as Represented by the Secretary , Dept.of Health …, priority 2008, published 2011)

How the values were obtained:
PBD of Plk1 = target: T1, PBD of Plk1 (Homo sapiens, UniProt P53350); assay: Binding of Plk1-phosphorylated 32P-PBIPtide-A6 to bead-bound GST-PBD; conditions: GST-PBD vs GST-PBD (H538A K540M), TBSN buffer, 1 hour at 4° C.
T1 construct: made in house

Plk1 [1] = assay: Direct Plk1 kinase assay with total HeLa lysates and [γ-32P]ATP using GST-PBIPtides as substrate; format: biochemical, human; conditions: shPlk1 HeLa lysates, compared with PBIPtide4
Experimental: FIGS. 1A-1B are digital images of Western blots, a schematic representation of a kinase assay and a set of bar graphs showing that a peptide that contains the T78 motif of PBIP1 (a PBIPtide) can be used to quantitate the kinase activity of Plk1 in vitro. […] FIG. 1A Left, mitotic HeLa lysates were incubated with either bead-immobilized control glutathione S-transferase (GST) or GST-PBIPtide4 in TBSN buffer containing phosphatase inhibitors. Beads were precipitated and washed and then subjected to in vitro kinase assays in the presence of [γ-^32P]-ATP. Samples were separated by sodium dodecyl sulfate polyacrylamide gel electrophoresis (SDS/PAGE), transferred to polyvinylidene fluoride (PVDF), and then exposed (Autorad). The membrane was immunoblotted with the indicated antibodies and then stained with Coomassie (CBB). Note that the anti-p-T78 signal (α-p-T78 panel) is relatively weak because the incubation was carried out in TBSN at 4° C. FIG. 1A Right is schematic diagram illustrating the experimental procedures described in FIG. 1A Left. The ellipsoids depict bead-associated GST-PBIPtide containing the T78 motif. […] The GST-PBIPtide bands were excised, and incorporated 32P was quantified. […]
It was then determined whether the Plk1 activity present in total cellular lysates could be directly measured by incubating the lysates with GST-PBIPtide. […]

Plk1 [2] = assay: PBIPtide-based Plk1 ELISA with shLuc/shPlk1 HeLa lysates; conditions: compared with PBIPtide4
Experimental: The ELISA wells were coated with soluble GST-PBIPtide containing the T78 motif and then reacted with total cellular lysates. The Plk1 activity in the total lysates generates the p-T78 epitope to which Plk1 itself binds. After reaction, Plk1 activity is quantified by incubating the ELISA wells with either anti-p-T78 antibody (to detect the p-T78 epitope generated) or anti-Plk1 antibody (to detect Plk1 bound to the p-T78 epitope), followed by HRP-conjugated secondary antibody (the grey antibody with a black dot). The asterisks indicate 3.3′, 5.5′-tetramethylbenzidine (TMB) substrate and its reaction product, generated by HRP. […] HeLa cells were silenced for control luciferase (shLuc) or Plk1 (shPlk1) and then treated with nocodazole for 16 hours to arrest the cells in prometaphase (a condition that maximizes Plk1 activity). […] Buffer indicates no-lysate control. The same lysates were subjected to immunoblotting analysis to determine the level of Plk1 in the lysates. […] GST-PBIPtide-A6-coated ELISA wells were incubated with the indicated amount of recombinant Plk1 purified from Sf9 cells. The level of the p-T78 epitope generated and the amount of Plk1 bound to the p-T78 GST-PBIPtide-A6 were quantified by using anti-p-T78 and anti-Plk1 antibodies, respectively. […] Total lysates were prepared from these cells and applied to the GST-PBIPtide-A6-coated wells. Buffer indicates no-lysate control. […]

T1 sequence (P53350 326-603 limits assumed): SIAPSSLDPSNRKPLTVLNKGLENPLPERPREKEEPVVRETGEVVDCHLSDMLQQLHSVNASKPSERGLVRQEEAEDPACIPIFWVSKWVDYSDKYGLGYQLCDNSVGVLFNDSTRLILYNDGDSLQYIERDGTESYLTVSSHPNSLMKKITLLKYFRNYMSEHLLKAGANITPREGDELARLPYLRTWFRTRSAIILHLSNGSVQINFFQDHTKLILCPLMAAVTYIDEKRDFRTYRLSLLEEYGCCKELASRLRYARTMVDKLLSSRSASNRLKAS

PBD binding after Plk1-dependent phosphorylation of the T78 motif (PBD of Plk1): sufficient for the PBD binding
Level of 32P incorporation after Plk1 depletion (Plk1 [1]): mildly, but reproducibly, lower level
Substance: GST-PBIPtide-A6: N-terminal GST fusion of SEQ ID NO: 8; 6 repeats of the PBIPtide (Y68F T70A Y81F) triple mutant joined by GGPGG linkers
Sensitivity to Plk1 activity (Plk1 [2]): mildly, but reproducibly, increased sensitivity
